In experiment [1] the target is T1, Serine/threonine-protein kinase ULK3 (Homo sapiens) (UniProt Q6PHR2).
T1 sequence (whole entry): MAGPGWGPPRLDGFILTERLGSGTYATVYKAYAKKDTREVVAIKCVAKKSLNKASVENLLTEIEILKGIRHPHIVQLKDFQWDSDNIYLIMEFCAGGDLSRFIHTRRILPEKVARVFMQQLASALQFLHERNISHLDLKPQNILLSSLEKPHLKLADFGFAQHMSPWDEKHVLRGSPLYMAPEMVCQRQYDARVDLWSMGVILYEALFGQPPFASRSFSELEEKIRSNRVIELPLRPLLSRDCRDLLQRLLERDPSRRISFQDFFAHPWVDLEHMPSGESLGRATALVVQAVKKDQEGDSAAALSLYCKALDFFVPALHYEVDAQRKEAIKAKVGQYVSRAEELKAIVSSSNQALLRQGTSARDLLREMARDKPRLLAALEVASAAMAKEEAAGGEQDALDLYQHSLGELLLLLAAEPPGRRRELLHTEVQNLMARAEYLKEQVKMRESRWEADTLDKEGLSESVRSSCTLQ
Briefly: Selectivity interaction (KinomeScan (DiscoverX)) EUB0001079a ULK3. To be noted: at 1 µM.

For experiment [2], the system named is Tyrosine-protein kinase ABL1 (Homo sapiens), P00519 [H396P]. Put plainly: Selectivity interaction (KinomeScan (DiscoverX)) EUB0000655a ABL1. To be noted: at 10 µM.
Another experiment has as its target D(2) dopamine receptor (Homo sapiens, UniProt P14416). Put plainly: Selectivity interaction (Panel of kinases, GPCRs, ion channels and transporters (enzymatic assay)) EUB0000223bCl DRD2.
For experiment [3], the target named is Potassium voltage-gated channel subfamily A member 5 (Homo sapiens) (UniProt P22460). Briefly: Selectivity interaction (Panel of kinases, GPCRs, ion channels and transporters (enzymatic assay)) EUB0000223bCl KCNA5.
Experiment [4] deals with Bromodomain-containing protein 2 (Homo sapiens) (UniProt P25440). Put plainly: Selectivity interaction (Bromodomain panel (DSF asssay)) EUB0000270b BRD2.
Experiment [5] concerns the target T2, Histone-lysine N-methyltransferase EHMT2 (Homo sapiens) (UniProt Q96KQ7).
T2 sequence (whole entry): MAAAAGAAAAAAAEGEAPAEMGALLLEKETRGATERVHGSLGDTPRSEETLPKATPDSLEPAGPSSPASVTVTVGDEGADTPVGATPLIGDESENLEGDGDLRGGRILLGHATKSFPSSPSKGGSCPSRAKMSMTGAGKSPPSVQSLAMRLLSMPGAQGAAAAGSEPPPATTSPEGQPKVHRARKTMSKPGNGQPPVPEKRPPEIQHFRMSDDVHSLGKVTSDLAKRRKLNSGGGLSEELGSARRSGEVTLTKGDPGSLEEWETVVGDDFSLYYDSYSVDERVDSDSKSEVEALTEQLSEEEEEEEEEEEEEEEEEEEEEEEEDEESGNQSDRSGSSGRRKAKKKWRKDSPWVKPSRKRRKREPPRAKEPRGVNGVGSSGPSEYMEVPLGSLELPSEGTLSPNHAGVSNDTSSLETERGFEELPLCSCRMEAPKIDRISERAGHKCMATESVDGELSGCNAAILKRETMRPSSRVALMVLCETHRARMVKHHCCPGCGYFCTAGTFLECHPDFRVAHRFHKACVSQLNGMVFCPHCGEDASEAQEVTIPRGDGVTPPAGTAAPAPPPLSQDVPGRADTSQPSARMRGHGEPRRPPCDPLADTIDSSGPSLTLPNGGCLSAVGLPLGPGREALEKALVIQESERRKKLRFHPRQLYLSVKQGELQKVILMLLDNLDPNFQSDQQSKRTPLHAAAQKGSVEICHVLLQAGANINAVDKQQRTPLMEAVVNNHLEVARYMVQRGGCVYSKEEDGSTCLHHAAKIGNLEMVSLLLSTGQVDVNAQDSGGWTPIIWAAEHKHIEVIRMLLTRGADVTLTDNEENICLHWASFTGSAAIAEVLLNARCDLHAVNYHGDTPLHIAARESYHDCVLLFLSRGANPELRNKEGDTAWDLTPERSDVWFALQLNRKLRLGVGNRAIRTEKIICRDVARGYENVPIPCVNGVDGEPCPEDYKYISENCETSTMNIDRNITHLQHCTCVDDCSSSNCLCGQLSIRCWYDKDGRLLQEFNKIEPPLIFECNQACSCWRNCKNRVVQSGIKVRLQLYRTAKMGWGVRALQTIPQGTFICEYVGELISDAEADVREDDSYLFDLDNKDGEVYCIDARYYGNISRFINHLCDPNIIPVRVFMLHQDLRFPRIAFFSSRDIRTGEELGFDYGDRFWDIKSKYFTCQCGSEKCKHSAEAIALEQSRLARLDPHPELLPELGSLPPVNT
Briefly: Selectivity interaction (Transferase panel (protein, RNA, and DNA methyltransferases. and EP300 (acetyltransferase))) EUB0000270b EHMT2.

In experiment [6] the target is Calcium/calmodulin-dependent protein kinase type II subunit beta (Homo sapiens) (UniProt Q13554). Briefly: Selectivity interaction (KinomeScan (DiscoverX)) EUB0000666a CAMK2B. To be noted: at 10 µM.
Experiment [7] concerns the target Mitogen-activated protein kinase kinase kinase kinase 1 (Homo sapiens) (UniProt Q92918). Briefly: Selectivity interaction (ActivX KiNativ screen (kinase selectivity in THP-1 cell lysates)) EUB0000639a MAP4K1. Conditions: lysate, at 0.01 µM. It counts as subcellular.
In experiment [8] the target is Cyclin-dependent kinase 17 (Homo sapiens) (UniProt Q00537). Put plainly: Selectivity interaction (KinomeScan (DiscoverX)) EUB0001619a CDK17. Conditions: at 1 µM.
Experiment [9] addresses Ribosomal protein S6 kinase alpha-3 (Homo sapiens, UniProt P51812). Put plainly: Selectivity interaction (ActivX KiNativ screen (ex vivo kinase selectivity in human PBMCs)) EUB0001619a RPS6KA3. It counts as cell-based. Conditions: PBMC, at 1 µM.

7 molecules from ChEMBL document CHEMBL5465560, “Selectivity Literature for EUbOPEN Chemogenomic Library” (2024) can be followed below.

A value given as a limit tells only on which side of the number the result lay.

Chain of Bromodomain-containing protein 2 (Homo sapiens) (P25440 whole entry, looked up): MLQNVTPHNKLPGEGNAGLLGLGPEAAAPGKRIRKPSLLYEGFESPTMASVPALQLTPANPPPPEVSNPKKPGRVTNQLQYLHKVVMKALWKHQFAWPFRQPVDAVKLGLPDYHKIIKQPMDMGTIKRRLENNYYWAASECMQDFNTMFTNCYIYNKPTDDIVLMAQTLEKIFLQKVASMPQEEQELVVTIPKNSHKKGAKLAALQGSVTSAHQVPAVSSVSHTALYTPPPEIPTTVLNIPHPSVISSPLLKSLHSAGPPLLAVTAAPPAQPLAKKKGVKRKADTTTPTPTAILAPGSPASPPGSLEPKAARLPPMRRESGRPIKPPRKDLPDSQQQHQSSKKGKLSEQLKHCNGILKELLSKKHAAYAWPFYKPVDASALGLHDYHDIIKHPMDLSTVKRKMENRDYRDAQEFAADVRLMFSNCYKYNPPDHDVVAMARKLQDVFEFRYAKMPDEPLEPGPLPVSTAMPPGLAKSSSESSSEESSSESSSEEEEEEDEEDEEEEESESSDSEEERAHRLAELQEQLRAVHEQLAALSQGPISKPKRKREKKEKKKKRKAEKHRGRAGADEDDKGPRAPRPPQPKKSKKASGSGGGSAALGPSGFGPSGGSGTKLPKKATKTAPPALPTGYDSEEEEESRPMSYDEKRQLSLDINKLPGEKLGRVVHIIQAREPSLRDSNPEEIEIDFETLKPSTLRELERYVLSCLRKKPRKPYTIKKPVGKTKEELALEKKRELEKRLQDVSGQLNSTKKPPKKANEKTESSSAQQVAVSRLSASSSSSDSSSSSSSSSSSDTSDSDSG
Chain of Potassium voltage-gated channel subfamily A member 5 (Homo sapiens) (P22460 whole entry): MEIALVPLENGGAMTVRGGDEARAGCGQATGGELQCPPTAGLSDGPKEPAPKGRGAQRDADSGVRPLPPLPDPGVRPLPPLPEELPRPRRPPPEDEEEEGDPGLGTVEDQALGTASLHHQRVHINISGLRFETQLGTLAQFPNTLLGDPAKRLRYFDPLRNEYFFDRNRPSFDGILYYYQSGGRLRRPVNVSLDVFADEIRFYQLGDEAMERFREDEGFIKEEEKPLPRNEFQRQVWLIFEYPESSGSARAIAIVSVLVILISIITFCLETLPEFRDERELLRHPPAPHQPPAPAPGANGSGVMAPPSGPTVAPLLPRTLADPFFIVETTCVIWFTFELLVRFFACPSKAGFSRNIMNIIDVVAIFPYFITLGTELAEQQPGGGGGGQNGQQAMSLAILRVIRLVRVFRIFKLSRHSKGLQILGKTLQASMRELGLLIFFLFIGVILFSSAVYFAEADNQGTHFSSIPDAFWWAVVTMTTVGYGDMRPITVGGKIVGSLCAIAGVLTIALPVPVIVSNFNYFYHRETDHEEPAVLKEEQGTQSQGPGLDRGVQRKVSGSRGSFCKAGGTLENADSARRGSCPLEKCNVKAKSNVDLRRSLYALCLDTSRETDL
Chain of Calcium/calmodulin-dependent protein kinase type II subunit beta (Homo sapiens) (Q13554 whole entry): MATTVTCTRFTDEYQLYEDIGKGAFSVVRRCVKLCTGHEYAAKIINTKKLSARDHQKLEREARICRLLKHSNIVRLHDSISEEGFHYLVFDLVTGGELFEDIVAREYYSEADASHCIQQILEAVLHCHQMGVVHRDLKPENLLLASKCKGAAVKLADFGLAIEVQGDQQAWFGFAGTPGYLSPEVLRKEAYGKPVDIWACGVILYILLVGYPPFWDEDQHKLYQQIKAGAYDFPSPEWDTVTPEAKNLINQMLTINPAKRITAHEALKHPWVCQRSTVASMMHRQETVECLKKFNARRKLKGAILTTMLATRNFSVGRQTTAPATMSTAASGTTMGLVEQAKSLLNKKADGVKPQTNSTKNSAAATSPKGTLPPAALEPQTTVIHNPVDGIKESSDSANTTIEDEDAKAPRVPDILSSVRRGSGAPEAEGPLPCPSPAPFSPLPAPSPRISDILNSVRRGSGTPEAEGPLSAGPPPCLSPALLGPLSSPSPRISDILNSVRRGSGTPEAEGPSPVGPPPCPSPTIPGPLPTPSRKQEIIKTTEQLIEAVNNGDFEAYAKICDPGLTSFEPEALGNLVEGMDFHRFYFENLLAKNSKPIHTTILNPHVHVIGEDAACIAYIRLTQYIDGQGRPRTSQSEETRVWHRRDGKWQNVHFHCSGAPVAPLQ
Chain of D(2) dopamine receptor (P14416 whole entry): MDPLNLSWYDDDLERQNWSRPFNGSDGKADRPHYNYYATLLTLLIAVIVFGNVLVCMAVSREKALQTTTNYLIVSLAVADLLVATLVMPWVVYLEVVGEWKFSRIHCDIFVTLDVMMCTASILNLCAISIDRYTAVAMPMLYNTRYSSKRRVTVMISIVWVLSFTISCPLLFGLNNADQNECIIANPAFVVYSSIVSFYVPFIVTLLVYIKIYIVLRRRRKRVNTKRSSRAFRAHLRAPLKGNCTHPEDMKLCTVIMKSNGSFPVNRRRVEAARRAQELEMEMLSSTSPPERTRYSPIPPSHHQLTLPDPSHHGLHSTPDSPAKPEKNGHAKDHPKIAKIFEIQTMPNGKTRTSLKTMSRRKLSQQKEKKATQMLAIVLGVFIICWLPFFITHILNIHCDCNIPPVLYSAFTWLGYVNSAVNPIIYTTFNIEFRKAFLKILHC
Chain of Mitogen-activated protein kinase kinase kinase kinase 1 (Homo sapiens) (Q92918 whole entry, looked up): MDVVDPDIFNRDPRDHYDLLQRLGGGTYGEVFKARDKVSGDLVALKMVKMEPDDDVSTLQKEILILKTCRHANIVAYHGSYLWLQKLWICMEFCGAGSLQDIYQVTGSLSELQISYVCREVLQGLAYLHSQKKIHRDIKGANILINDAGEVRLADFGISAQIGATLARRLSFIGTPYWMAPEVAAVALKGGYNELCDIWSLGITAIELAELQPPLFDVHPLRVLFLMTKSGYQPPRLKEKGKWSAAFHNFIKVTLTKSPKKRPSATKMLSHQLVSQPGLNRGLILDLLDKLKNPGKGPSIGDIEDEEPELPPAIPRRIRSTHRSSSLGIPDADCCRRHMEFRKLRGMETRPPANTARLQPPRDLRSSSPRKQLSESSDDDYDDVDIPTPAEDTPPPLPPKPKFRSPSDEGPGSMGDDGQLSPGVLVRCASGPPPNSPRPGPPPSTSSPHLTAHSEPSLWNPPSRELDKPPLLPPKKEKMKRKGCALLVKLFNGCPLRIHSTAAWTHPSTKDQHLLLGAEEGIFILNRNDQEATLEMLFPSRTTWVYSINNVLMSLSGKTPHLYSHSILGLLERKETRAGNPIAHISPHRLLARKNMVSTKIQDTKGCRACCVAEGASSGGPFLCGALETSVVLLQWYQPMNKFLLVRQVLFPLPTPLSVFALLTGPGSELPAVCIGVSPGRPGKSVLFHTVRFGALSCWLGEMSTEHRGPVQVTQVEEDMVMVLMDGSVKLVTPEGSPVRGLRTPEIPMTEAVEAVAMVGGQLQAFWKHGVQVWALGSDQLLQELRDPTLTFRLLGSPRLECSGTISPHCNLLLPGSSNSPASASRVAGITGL
Chain of Cyclin-dependent kinase 17 (Homo sapiens) (Q00537 whole entry, looked up): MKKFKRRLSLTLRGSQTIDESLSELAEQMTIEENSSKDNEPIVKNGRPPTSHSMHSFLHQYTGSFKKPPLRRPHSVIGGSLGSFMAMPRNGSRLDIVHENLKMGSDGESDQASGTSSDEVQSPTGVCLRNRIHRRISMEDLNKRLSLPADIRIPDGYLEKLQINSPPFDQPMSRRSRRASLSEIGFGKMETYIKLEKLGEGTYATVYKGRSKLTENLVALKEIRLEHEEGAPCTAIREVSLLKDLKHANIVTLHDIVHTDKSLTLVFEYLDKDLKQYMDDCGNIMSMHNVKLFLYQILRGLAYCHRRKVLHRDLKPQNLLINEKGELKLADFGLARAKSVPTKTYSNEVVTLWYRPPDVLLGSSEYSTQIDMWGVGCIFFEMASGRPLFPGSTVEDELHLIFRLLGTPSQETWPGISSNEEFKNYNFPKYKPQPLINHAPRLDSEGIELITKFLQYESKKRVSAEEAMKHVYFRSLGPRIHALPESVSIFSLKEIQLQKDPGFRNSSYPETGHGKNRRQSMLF
Chain of Ribosomal protein S6 kinase alpha-3 (P51812 whole entry): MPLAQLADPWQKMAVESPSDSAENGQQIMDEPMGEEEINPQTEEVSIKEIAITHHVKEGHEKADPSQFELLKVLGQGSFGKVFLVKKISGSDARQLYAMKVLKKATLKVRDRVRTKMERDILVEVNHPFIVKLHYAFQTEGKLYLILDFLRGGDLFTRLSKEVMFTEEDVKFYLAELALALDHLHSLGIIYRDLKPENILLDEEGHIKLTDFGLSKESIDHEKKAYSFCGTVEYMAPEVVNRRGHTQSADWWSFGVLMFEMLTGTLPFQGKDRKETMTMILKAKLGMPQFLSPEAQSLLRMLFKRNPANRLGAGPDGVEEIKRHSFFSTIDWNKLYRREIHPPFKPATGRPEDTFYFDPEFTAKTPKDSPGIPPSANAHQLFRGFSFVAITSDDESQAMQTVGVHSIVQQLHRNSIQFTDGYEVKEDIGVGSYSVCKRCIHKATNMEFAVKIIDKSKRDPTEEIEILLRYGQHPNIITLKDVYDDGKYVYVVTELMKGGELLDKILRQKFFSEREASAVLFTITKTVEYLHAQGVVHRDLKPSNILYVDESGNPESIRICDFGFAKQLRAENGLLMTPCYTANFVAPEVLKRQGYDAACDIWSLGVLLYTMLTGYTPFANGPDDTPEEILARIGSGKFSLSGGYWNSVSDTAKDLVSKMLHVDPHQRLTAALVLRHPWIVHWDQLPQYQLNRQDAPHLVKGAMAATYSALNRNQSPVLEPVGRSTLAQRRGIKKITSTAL

`Nc1cnc(N2CCc3cc(S(=O)(=O)Nc4c(F)cc(Cl)cc4F)cc(N4CCCC4=O)c32)nc1` [TP-020n]: the % of control in experiment [1] was 100%. Turning to `CN(C)CCOc1ccc(-c2nc(-c3ccncc3)c(-c3ccc4c(c3)CC/C4=N\O)[nH]2)cc1`, the % of control in [2] amounted to 6.9%. With `COc1cc(C(=O)N2CC[C@@H](O)[C@@H](N)C2)cc2nc(-c3cc4ccccc4n3CC3CC3)n(C)c12`, the figures for the pXC50 (on D(2) dopamine receptor; in experiment [3]) were 4.6 M and under 4.8 M, respectively. For `Cc1cc(CN)cc(C)c1-c1ncn(C)c1-c1cncn1C`, the dTM in [4] was -1.04 K. Besides, the % activity was over 90% in experiment [5] (at 1 µM) and over 80% in experiment [5] (at 10 µM). On to `O=C(NOC[C@H](O)CO)c1ccc(F)c(F)c1Nc1ccc(I)cc1F`, for which the % of control in experiment [6] was 100%. In experiment [7], `CC[C@@H]1[C@H](F)C(=O)N[C@@H]1COc1nccc2cc(C(N)=O)c(OC)cc12` [ZIMLOVISERTIB] came in with a % of inhibition of 6.1%. In [8], `N#Cc1cccc(-c2c[nH]c3ncnc(N4CCOCC4)c23)c1` gave a % of control of 100%. Besides, the % of inhibition in [9] was found to be 10%.
